Measured values from publication PMC7693184 (Angewandte Chemie (International Ed. in English), 2020).

Target: T1, BtuR (ATP:Co(I)rrinoid adenosyltransferase) (Brucella melitensis, UniProt Q8YHV0)
T1 construct: gene BMEI0696
Conditions: excess cob(I)alamin as corrinoid substrate; inhibitor 5 μM; not a substrate itself

T1 sequence (Q8YHV0 1-189): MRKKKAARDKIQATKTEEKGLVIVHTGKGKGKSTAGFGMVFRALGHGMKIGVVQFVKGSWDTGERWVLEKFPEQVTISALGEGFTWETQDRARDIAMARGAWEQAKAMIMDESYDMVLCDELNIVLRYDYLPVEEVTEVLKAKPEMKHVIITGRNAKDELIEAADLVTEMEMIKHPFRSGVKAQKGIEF

nibalamin [Nibl]
% inhibition at 5 μM: 60%
